{
  "source": "patent US8791158B2",
  "about": "“Methods of treating meibomian gland dysfunction” (GTX, Inc., priority 2010, dated 2014)",
  "key": {"[1]": {"tested_on": "acute, orchiectomized (ORX) rabbit model", "assay": "Tear fatty acid composition (palmitate:stearate ratio) after Compound 2 or TP, Example 3", "assay_type": "in vivo", "conditions": "ORX rabbits; for Tear palmitate:stearate ratio after 4 week washout: then untreated 4 weeks", "description": "The goal of this study was to compare the effect of Compound 2 to testosterone propionate (TP) on tear composition in an acute, orchiectomized (ORX) rabbit model.\nFifteen New Zealand white rabbits weighing approximately 3 lbs were allowed to acclimate for 4 weeks before the start of the study. Animals were weighed on day 0 of the study, randomized according to body weight and allotted to the following dose groups:\nPre-dose tear and blood samples were collected. Animals from groups 2-5 were to premedicated with glycopyrrolate (0.02 mg/kg) and then anesthesia was induced with a combination of ketamine (15 mg/kg): medetomidine (0.25 mg/kg).\nAnesthesia was maintained with isoflurane (1 liter/hr). Orchiectomy was performed using a scrotal incision. Animals were revived from anesthesia using atipamezole (1 mg/kg) SQ. Analgesia was provided with buprenorphine (0.05 mg/kg) Immediately after the animals had recovered from anesthesia, they received their first dose with the appropriate test articles as indicated above.\nDrug dosing was done once daily for 14 days. Blood was collected at 60 minutes post administration of the last dose of drug and plasma separated for HPLC analysis of parent drug concentrations.\nTears were collected using Schirmer tear strips (Alcon, Tex.) on day 0 before surgery, 24 hours after the last administration of drug (day 15) and also at 42 days (6 weeks after start of study). The tears were stored at −80° C. prior to lipid analysis.\nLipids were hydrolyzed, extracted from the Schirmer strips, derivatized, and subjected to gas chromatography with flame ionization detector (GCFID) to evaluate the lipid composition.\nThe samples were evaluated for the presence of 28 saturated and unsaturated fatty acids that included methyl caprate (C10:0), methyl laurate (C12:0), methyl 11-dodecenoate (C12:1), methyl myristate (C14:0), methyl myristoleate (C14:1), methyl palmitate (C16:0), methyl palmitoleate (C16:1), methyl stearate (C18:0), methyl oleate (C18:1), methyl vaccenate (C18:1), methyl linoleate (C18:2), methyl gamma linoleate (C18:3), methyl linoleate (C18:3), methyl arachidate (C20:0), methyl 11-eicosenoate (C20:1), methyl 11,14 eicosadinoate (C20:2), methyl 8,11,14 eicosatrienoate (C20:3), methyl eicosapentaenoate (C20:5), methyl behenate (C22:0), methyl erucate (C22:1), methyl 13,16 docosaenoate (C22:2), methyl docosatetraenoate (C22:4), methyl docosapentaenoate (C22:5), methyl docosahexaenoate (C22:6), methyl lignocerate (C24:0), and methyl nervonate (C24:1).\nThe area under the curve for each individual peak was determined using GC ChemStation software. […] These samples were then washed with a saturated solution of NaCl+0.1% formic acid (FA). […] These samples were all in the predose tear group. Two more samples from the predose group and one sample from Vehicle Intact treated group had small but clear and well to separated peaks that were included in the analysis.\nTo normalize for the tear content, the lipid composition was expressed as a ratio of the lipid that was most affected by castration (palmitate) to one which remained relatively constant (stearate). Blood was also collected on day 15 (24 hours after last drug administration) of the study, plasma separated and analyzed for Compound 2.\nThe last dose of drug or vehicle was administered on day 15 of the study Animals were left untreated for 4 weeks (washout period) before tear samples were collected again on Schirmer tear strips and analyzed as indicated above."}, "[2]": {"assay": "Pharmacokinetic analysis of rabbit plasma after topical dosing, Example 5", "assay_type": "in vivo", "conditions": "for Amount of drug absorbed into systemic circulation at lower doses compared to exposure at 2.5 mg/kg: lower topical doses vs 2.5 mg/kg (Table 6); for AUC: rabbit, plasma, topical or ocular, day 11, read-out: Systemic AUC", "procedure": "Immediately after recovery from anesthesia, the animals were dosed with the appropriate test articles as indicated above. Drug dosing was performed once daily for 14 d. Blood samples were collected on day 11 of dosing at 0, 30, 60, 120, 240 and 1440 minutes post administration and to plasma separated for LCMS analysis of parent drug concentrations. Tears were collected using Schirmer tear strips (Alcon, Tex.) on day 0 before surgery and 24 hours after the last administration of drug (day 15). The tears were stored at −80° C. until shipment for lipid analysis. Lipids were hydrolyzed, extracted from the Schirmer strips, derivatized, and subjected to GC-FID to evaluate the lipid composition. The samples were evaluated for the presence of 28 saturated and unsaturated fatty acids that included methyl caprate (C10:0), methyl laurate (C12:0), methyl 11-dodecenoate (C12:1), methyl myri state (C14:0), methyl myristoleate (C14:1), methyl palmitate (C16:0), methyl palmitoleate (C16:1), methyl stearate (C18:0), methyl oleate (C18:1), methyl vaccenate (C18:1), methyl linoleate (C18:2), methyl gamma linoleate (C18:3), methyl linoleate (C18:3), methyl arachidate (C20:0), methyl 11-eicosenoate (C20:1), methyl 11,14 eicosadinoate (C20:2), methyl 8,11,14 eicosatrienoate (C20:3), methyl eicosapentaenoate (C20:5), methyl behenate (C22:0), methyl erucate (C22:1), methyl 13,16 docosaenoate (C22:2), methyl docosatetraenoate (C22:4), methyl docosapentaenoate (C22:5), methyl docosahexaenoate (C22:6), methyl lignocerate and (C24:0), methyl nervonate (C24:1). Area under the curve for each individual peak was determined using the GC ChemStation software. To normalize for the tear content, the lipid composition was expressed as a ratio of the lipid that was most affected by castration (palmitate) to one which remained relatively constant (stearate).\nPlasma samples collected after dosing were analyzed using an LCMS/MS method. Briefly, plasma samples were prepared by protein precipitation extraction. (S)—N-(4-Cyano-3-(trifluoromethyl)phenyl)-3-(4-chlorophenoxy)-2-hydroxy-2-methylpropanamide was used as internal standard. The analysis of Compound 1 and Compound 2 was performed using an LC-MS/MS system consisting of an Agilent 1100 HPLC with an MDS/Sciex 4000 Q-Trap™ mass spectrometer. The separation was achieved using a C18 analytical column (Alltima™, 2.1×100 mm, 3 μm) protected by a C18 guard column (SecurityGuard™ 4.0×2.0 mm ID, Phenomenex). Mobile phase consisted of 60% acetonitrile, 40% water and 0.1% formic acid. Mobile phase was delivered at a flow rate of 0.3 mL/min Multiple reaction monitoring (MRM) scans were performed using curtain gas and a source temperature of 500° C. Molecular ions were formed using an ion spray voltage of −4500 V. Product ions were formed in nitrogen gas at a declustering potential of −55 V (Compound 1), −64 V (Compound 2), and −78 V (Internal standard) and collision energy of −24.0 V (Compound 1, m/z 388.0→117.9), −26.0 V (Compound 2, m/z 406.1→135.9), and −22.4 V (Internal standard, m/z 396.9→241.0). The plasma concentration—time data were analyzed by non-compartmental methods using WinNonlin (Version 3.1, Pharsight Corporation, Mountain View, Calif., USA). The area under the plasma concentration—time curve from time zero to infinity (AUC) was calculated by the trapezoidal rule with extrapolation to time infinity.\nSystemic exposures after topical administration of the blood was determined in peripheral blood samples obtained at 30, 60, […], 240 and 1440 minutes after drug administration on day 11 of the study."}},
  "note": "Like-named read-outs stand apart in the source and are kept apart here.",
  "data": [
    {"smiles": "C[C@](O)(COc1ccc(C#N)c(F)c1)C(=O)Nc1ccc(C#N)c(C(F)(F)F)c1", "note": "[Compound 2, (S)—N-(4-cyano-3-(trifluoromethyl)phenyl)-3-(4-cyano-3-fluorophenoxy)-2-hydroxy-2-methylpropanamide]", "values": [
      {"measurement": "Increase of tear palmitate:stearate ratio relative to intact animals", "setting": "[1]; 2.5 mg/kg, 14 days", "result": "two times that of intact animals"},
      {"measurement": "Tear palmitate:stearate ratio after 4 week washout", "setting": "[1]; SQ 2.5 mg/kg for two weeks", "result": "1.47±0.172"},
      {"measurement": "Tear palmitate:stearate ratio after 4 week washout", "setting": "[1]; topical 2.5 mg/kg for two weeks", "result": "1.66±0.426"},
      {"measurement": "Amount of drug absorbed into systemic circulation at lower doses compared to exposure at 2.5 mg/kg", "setting": "[2]", "result": "¼^th"},
      {"measurement": "AUC", "setting": "[2]; 0.625 mg/kg, topical 0.625 mpk", "result": 3.2, "unit": "µM·h"},
      {"measurement": "AUC", "setting": "[2]; 1.25 mg/kg, topical 1.25 mpk", "result": 6.92, "unit": "µM·h"}
    ]},
    {"smiles": "C[C@](O)(COc1ccc(C#N)cc1)C(=O)Nc1ccc(C#N)c(C(F)(F)F)c1", "note": "[Compound 1, (S)—N-(4-Cyano-3-(trifluoromethyl)phenyl)-3-(4-cyanophenoxy)-2-hydroxy-2-methylpropanamide]", "values": [
      {"measurement": "Amount of drug absorbed into systemic circulation at lower doses compared to exposure at 2.5 mg/kg", "setting": "[2]", "result": "⅛^th"},
      {"measurement": "AUC", "setting": "[2]; 0.625 mg/kg, topical 0.625 mpk", "result": 2.87, "unit": "µM·h"},
      {"measurement": "AUC", "setting": "[2]; 1.25 mg/kg, topical 1.25 mpk", "result": 3.99, "unit": "µM·h"}
    ]}
  ]
}
